From patent US6352992B1, “Endothelin antagonist and beta receptor blocking agent as combined preparations” (Abbott Laboratories, priority 1997, dated 2002)

System: normotensive awake dogs
Assay: Mean arterial blood pressure in normotensive awake dogs after oral administration
Assay type: in vivo, beagle dogs
Conditions: Compound A 10 mg/kg, bucindolol 0.1 mg/kg; for mean arterial blood pressure, change with respect to the initial value: combination 10 + 0.1 mg/kg, mean values
Protocol: In a crossover design, the test substance was administered orally as a capsule to chronically instrumented male beagle dogs (approx 14 kg). The capsule either contained nothing (control N=5), compound A (10 mg/kg, N=10), bucindolol (0.1 mg/kg; N=5) or the combination bucindolol + compound A (0.1+10 mg/kg; N=5). In between the individual administrations, a washing phase of at least one week was observed. The systolic and the diastolic blood pressure were measured using a Statham Transducer P 23 Db, from which the mean arterial blood pressure was calculated. The blood pressure was recorded for 6 h (MI^2, Modular Instrumente, USA).
Development of the mean arterial blood pressure (mmHg, change with respect to the initial value) in normotensive awake dogs after oral administration of different substances, what is shown are the mean values

## CC(C)(Cc1c[nH]c2ccccc12)NCC(O)COc1ccccc1C#N (stereo not shown) [Bucindolol, bucindolol]
1h after oral capsule
  mean arterial blood pressure, change with respect to the initial value: −0.8 mmHg
2h after oral capsule
  mean arterial blood pressure, change with respect to the initial value: −3.8 mmHg
3h after oral capsule
  mean arterial blood pressure, change with respect to the initial value: −3.4 mmHg
4h after oral capsule
  mean arterial blood pressure, change with respect to the initial value: −3.8 mmHg
5h after oral capsule
  mean arterial blood pressure, change with respect to the initial value: −3.8 mmHg
6h after oral capsule
  mean arterial blood pressure, change with respect to the initial value: −1.4 mmHg
Oral capsule, recorded for 6 h, combination 0.1+10 mg/kg
  effect on blood pressure, in words: does not decrease
